Earlier results on 1 molecule are cited in patent publication US20190142979A1, “CONTRAST MEDIUM AND METHODS INVOLVED IN PREPARATION FOR THE DETERMINATION OF PATENCY OF CONDUITS” (priority 2016, published 2019).

Consider `CCN(CC)CC(=O)Nc1c(C)cccc1C` [Lidocaine], for which the “alteration of fertility levels” value (post administration) was “not reported”. The safety result (upon injection into uterine cavity or into peritoneal cavity) is reported as “highly safe”.
